What all share (format): functional
Experiment [1] has as its system Staphylococcus aureus. The experiment is described as follows: Antibacterial activity against Staphylococcus aureus ATCC 25923 assessed as reduction in bacterial growth incubated for 24 hrs by CLSI based serial dilution method.
For experiment [2], the system named is Staphylococcus aureus. Put plainly: Antibacterial activity against Staphylococcus aureus ATCC 29213 assessed as reduction in bacterial growth incubated for 24 hrs by CLSI based serial dilution method.
Experiment [3] concerns Acinetobacter. Put plainly: Antibacterial activity against Acinetobacter sp. 103 assessed as reduction in bacterial growth incubated for 24 hrs by CLSI based serial dilution method.
The subject of experiment [4] is Acinetobacter. The experiment is described as follows: Antibacterial activity against Acinetobacter sp. 121 assessed as reduction in bacterial growth incubated for 24 hrs by CLSI based serial dilution method.
In experiment [5] the test system is Acinetobacter. The experiment is described as follows: Antibacterial activity against Acinetobacter sp. 122 assessed as reduction in bacterial growth incubated for 24 hrs by CLSI based serial dilution method.
The test system of experiment [6] is Acinetobacter. The experiment is described as follows: Antibacterial activity against Acinetobacter sp. 126 assessed as reduction in bacterial growth incubated for 24 hrs by CLSI based serial dilution method.
The next experiment has as its system Pseudomonas aeruginosa. The experiment is described as follows: Antibacterial activity against Pseudomonas aeruginosa ATCC 27853 assessed as reduction in bacterial growth incubated for 24 hrs by CLSI based serial dilution method.
A further experiment relates to Enterococcus faecalis. The experiment is described as follows: Antibacterial activity against Enterococcus faecalis ATCC 29212 assessed as reduction in bacterial growth incubated for 24 hrs by CLSI based serial dilution method.
The subject of experiment [7] is Staphylococcus aureus. The experiment is described as follows: Antibacterial activity against methicillin-resistant Staphylococcus aureus 114 assessed as reduction in bacterial growth incubated for 24 hrs by CLSI based serial dilution method.
In experiment [8] the test system is Staphylococcus aureus. Put plainly: Antibacterial activity against methicillin-resistant Staphylococcus aureus 124 assessed as reduction in bacterial growth incubated for 24 hrs by CLSI based serial dilution method.
Experiment [9] deals with Staphylococcus aureus. Put plainly: Antibacterial activity against methicillin-resistant Staphylococcus aureus 58 assessed as reduction in bacterial growth incubated for 24 hrs by CLSI based serial dilution method.
Experiment [10] relates to Staphylococcus aureus. Put plainly: Antibacterial activity against methicillin-resistant Staphylococcus aureus 59 assessed as reduction in bacterial growth incubated for 24 hrs by CLSI based serial dilution method.
Experiment [11] has as its system Escherichia coli. Put plainly: Antibacterial activity against Escherichia coli ATCC 35218 assessed as reduction in bacterial growth incubated for 24 hrs by CLSI based serial dilution method.
Experiment [12] deals with Escherichia coli. Put plainly: Antibacterial activity against Escherichia coli ATCC 25922 assessed as reduction in bacterial growth incubated for 24 hrs by CLSI based serial dilution method.
For experiment [13], the system named is Klebsiella pneumoniae. Put plainly: Antibacterial activity against Klebsiella pneumoniae ATCC BAA-1705 assessed as reduction in bacterial growth incubated for 24 hrs by CLSI based serial dilution method.
For experiment [14], the system named is Klebsiella pneumoniae. The experiment is described as follows: Antibacterial activity against Klebsiella pneumoniae ATCC BAA-1706 assessed as reduction in bacterial growth incubated for 24 hrs by CLSI based serial dilution method.
In experiment [15] the test system is Staphylococcus aureus. Put plainly: Antibacterial activity against Staphylococcus aureus assessed as reduction in bacterial growth incubated for 24 hrs in presence of oxacillin by CLSI based serial dilution method.
For experiment [16], the system named is Staphylococcus aureus. The experiment is described as follows: Antibacterial activity against methicillin-resistant Staphylococcus aureus 114 assessed as reduction in bacterial growth incubated for 24 hrs in presence of oxacillin by CLSI based serial dilution method.
Experiment [17] deals with Staphylococcus aureus. Put plainly: Antibacterial activity against methicillin-resistant Staphylococcus aureus 124 assessed as reduction in bacterial growth incubated for 24 hrs in presence of oxacillin by CLSI based serial dilution method.
Experiment [18] has as its system Staphylococcus aureus. The experiment is described as follows: Antibacterial activity against methicillin-resistant Staphylococcus aureus 58 assessed as reduction in bacterial growth incubated for 24 hrs in presence of oxacillin by CLSI based serial dilution method.
The subject of experiment [19] is Staphylococcus aureus. The experiment is described as follows: Antibacterial activity against methicillin-resistant Staphylococcus aureus 59 assessed as reduction in bacterial growth incubated for 24 hrs in presence of oxacillin by CLSI based serial dilution method.
For experiment [20], the system named is Staphylococcus aureus. Put plainly: Antibacterial activity against Staphylococcus aureus assessed as fractional inhibitory concentration incubated for 24 hrs in presence of oxacillin by CLSI based serial dilution method.
Experiment [21] concerns Staphylococcus aureus. The experiment is described as follows: Antibacterial activity against methicillin-resistant Staphylococcus aureus 114 assessed as fractional inhibitory concentration incubated for 24 hrs in presence of oxacillin by CLSI based serial dilution method.
The test system of experiment [22] is Staphylococcus aureus. The experiment is described as follows: Antibacterial activity against methicillin-resistant Staphylococcus aureus 124 assessed as fractional inhibitory concentration incubated for 24 hrs in presence of oxacillin by CLSI based serial dilution method.
Experiment [23] deals with Staphylococcus aureus. Put plainly: Antibacterial activity against methicillin-resistant Staphylococcus aureus 58 assessed as fractional inhibitory concentration incubated for 24 hrs in presence of oxacillin by CLSI based serial dilution method.
Experiment [24] concerns Staphylococcus aureus. Put plainly: Antibacterial activity against methicillin-resistant Staphylococcus aureus 59 assessed as fractional inhibitory concentration incubated for 24 hrs in presence of oxacillin by CLSI based serial dilution method.
Experiment [25] relates to Staphylococcus aureus. Put plainly: Antibacterial activity against Staphylococcus aureus assessed as fractional inhibitory concentration index incubated for 24 hrs in presence of oxacillin by CLSI based serial dilution method.
Experiment [26] deals with Staphylococcus aureus. The experiment is described as follows: Antibacterial activity against methicillin-resistant Staphylococcus aureus 114 assessed as fractional inhibitory concentration index incubated for 24 hrs in presence of oxacillin by CLSI based serial dilution method.
The subject of experiment [27] is Staphylococcus aureus. The experiment is described as follows: Antibacterial activity against methicillin-resistant Staphylococcus aureus 124 assessed as fractional inhibitory concentration index incubated for 24 hrs in presence of oxacillin by CLSI based serial dilution method.
The subject of experiment [28] is Staphylococcus aureus. The experiment is described as follows: Antibacterial activity against methicillin-resistant Staphylococcus aureus 58 assessed as fractional inhibitory concentration index incubated for 24 hrs in presence of oxacillin by CLSI based serial dilution method.
For experiment [29], the system named is Staphylococcus aureus. Put plainly: Antibacterial activity against methicillin-resistant Staphylococcus aureus 59 assessed as fractional inhibitory concentration index incubated for 24 hrs in presence of oxacillin by CLSI based serial dilution method.

The record followed here is ChEMBL document CHEMBL4819100, “Antibacterial and synergistic activity of 6β-hydroxy-3-oxolup-20(29)-en-28-oic acid (6β-hydroxy betunolic acid) isolated from Schumacheria castaneifolia vahl” (2021).

≈ marks a conversion by molar mass, not a printed value. Where only a bound is given, the exact number is not on record here.

As a reminder, the MIC is the lowest concentration found to suppress growth. `C=C(C)[C@@H]1CC[C@]2(C(=O)O)CC[C@]3(C)[C@H](CC[C@@H]4[C@@]5(C)CCC(=O)C(C)(C)[C@@H]5[C@H](O)C[C@]43C)[C@@H]12`: the MIC was 16 µg/mL (≈ 34 µM) in the experiment with Staphylococcus aureus [1]; 32 µg/mL (≈ 68 µM) in the experiment with Staphylococcus aureus [2]; above 1020 µg/mL with Acinetobacter [3]; above 1020 µg/mL in the experiment on Acinetobacter [4]; above 1020 µg/mL in the experiment on Acinetobacter [5]; above 1020 µg/mL with Acinetobacter [6]. Further, the MIC is above 1020 µg/mL in the experiment on Pseudomonas aeruginosa; 32 µg/mL (≈ 68 µM) in the experiment on Enterococcus faecalis; 32 µg/mL (≈ 68 µM) in the experiment with Staphylococcus aureus [7]; 32 µg/mL (≈ 68 µM) in the experiment on Staphylococcus aureus [8]; 32 µg/mL (≈ 68 µM) with Staphylococcus aureus [9]; 16 µg/mL (≈ 34 µM) in the experiment with Staphylococcus aureus [10]. In addition, the MIC was above 1020 µg/mL with Escherichia coli [11]; above 1020 µg/mL with Escherichia coli [12]; above 1020 µg/mL with Klebsiella pneumoniae [13]; above 1020 µg/mL in the experiment with Klebsiella pneumoniae [14]; 8 µg/mL in the experiment on Staphylococcus aureus [15]; 16 µg/mL in the experiment on Staphylococcus aureus [16]. The MIC with Staphylococcus aureus [17] was found to be 32 µg/mL; in the experiment on Staphylococcus aureus [18], 16 µg/mL; in the experiment with Staphylococcus aureus [19], 8 µg/mL. Besides, the FIC is reported as 0.25 with Staphylococcus aureus [20]; 0.5 in the experiment with Staphylococcus aureus [21]; 1 in the experiment on Staphylococcus aureus [22]; 0.5 in the experiment with Staphylococcus aureus [23]; 0.5 with Staphylococcus aureus [24]. The “fractional inhibitory concentration index (FICI)” value was 0.49 in the experiment with Staphylococcus aureus [25]; 0.53 in the experiment with Staphylococcus aureus [26]; 2 in the experiment with Staphylococcus aureus [27]; 1 in the experiment with Staphylococcus aureus [28]; 0.75 with Staphylococcus aureus [29].

Turning to `C[C@@H](O)[C@H]1C(=O)N2C(C(=O)O)=C(S[C@@H]3CN[C@H](C(=O)N(C)C)C3)[C@H](C)[C@H]12` [MEROPENEM], the MIC with Acinetobacter [3] is 64 µg/mL (≈ 167 µM); in the experiment on Acinetobacter [4], 64 µg/mL (≈ 167 µM); in the experiment with Acinetobacter [5], 128 µg/mL (≈ 334 µM); with Acinetobacter [6] it was 128 µg/mL (≈ 334 µM); in the experiment with Pseudomonas aeruginosa it was 0.12 µg/mL (≈ 0.313 µM); with Escherichia coli [11], 0.008 µg/mL (≈ 0.0209 µM). The MIC with Escherichia coli [12] was found to be 0.008 µg/mL (≈ 0.0209 µM); in the experiment on Klebsiella pneumoniae [13], 8 µg/mL (≈ 20.9 µM).

`Cc1onc(-c2ccccc2)c1C(=O)N[C@@H]1C(=O)N2[C@@H]1SC(C)(C)[C@@H]2C(=O)O` [OXACILLIN]: the MIC came to 0.12 µg/mL (≈ 0.299 µM) with Staphylococcus aureus [2]; 8 µg/mL (≈ 19.9 µM) with Enterococcus faecalis; 16 µg/mL (≈ 39.9 µM) with Staphylococcus aureus [7]; 16 µg/mL (≈ 39.9 µM) with Staphylococcus aureus [8]; 16 µg/mL (≈ 39.9 µM) in the experiment with Staphylococcus aureus [9]; 16 µg/mL (≈ 39.9 µM) in the experiment with Staphylococcus aureus [10].
